Measurements as given in US4965280A, “Antifungal carbinols” (E. I. Du Pont de Nemours and Company, priority 1989, dated 1990).

What was measured:
LADY SMARTWEED [1] = test: Test E; format: in vivo, Polygonum persicaria
Excerpt: Seeds of the following crops and weeds are sown into 15 cm pots containing Sassafras sandy loam soil: wheat (Triticum aestivum cv. Park), barley (Hordeum vulgare cv. Bonanza), sugarbeet (Beta vulgaris cv. USH-11), rapeseed (Brassica napus cv. Jet Neuf), black nightshade (Solanum nigrum), chickweed (Stellaria media), lambsquarter (Chenopodium album), Galium aparine, knotweed (Polygonum aviculare), Kochia scoparia, Matricaria indora, redroot pigweed (Amaranthus retroflexus), smartweed (Polygonum persicaria), speedwell (Veronica persica), wild buckwheat (Polygonum convolvulus), wild mustard (Brassica spp.), wild radish (Raphanus raphanistrum), annual bluegrass (PO annua), annual ryegrass (Lolium multiflorum), blackgrass (Alopercurus mysuroides), green foxtail (Setaria viridis), and wild oats (Avena fatua). Compounds are formulated in a nonphytotoxic solvent and applied to the plants as a foliar spray or applied to the soil surface. Plants are treated at two stages: preemergence, or postemergence when the sugarbeets are at the 2-3 true leaf stage. Plants are grown in a temperature-controlled greenhouse for the duration of the test.
Weed control and crop injury are evaluated visually at 3-4 weeks after compound application, using a scale of 0 to 100%, where 0=no injury and 100=complete death of the plant. All plants are rated with respect to untreated plants (checks) grown in the greenhouse under identical conditions to the treated plants.

GOOSEGRASS = test: Test F; format: in vivo, Eleusine indica
Excerpt: (§1) Weed species were planted 3 or 4 per 15-cm diameter pot in Sassafras sandy loam (pH 6.8; 1% OM). Cotton was planted separately in the same sized pot. Postemergence plantings were made 12-16 days prior to treating so plants were in the 2- to 3-leaf stage (5-12 cm tall). Preemergence plantings were made the day before treating. Compounds were sprayed in a suitable non-phytotoxic solvent at 374 l/ha, then after 3 weeks of growth in a greenhouse, plant responses were visually rated on a percent scale where 0=no injury and 100=plant death.

LARGE CRABGRASS = test: Test F; format: in vivo, Digitaria sanguinalis
Excerpt: as §1

PRICKLY SIDA = test: Test F; format: in vivo, Sida spinosa
Excerpt: as §1

COKER COTTON = test: Test F; format: in vivo, Gossypium hirsutum
Excerpt: as §1

PURPLE NUTSEDGE = test: Test F; format: in vivo, Cyperus rotundus
Excerpt: as §1

LADY SMARTWEED [2] = test: Test F; format: in vivo, Polygonum persicaria
Excerpt: as §1

BERMUDAGRASS = test: Test F; format: in vivo, Cynodon dactylon
Excerpt: as §1

JOHNSONGRASS = test: Test F; format: in vivo, Sorghum halepense
Excerpt: as §1

REDROOT PIGWEED = test: Test F; format: in vivo, Amaranthus retroflexus
Excerpt: as §1

LAMBSQUARTER = test: Test F; format: in vivo, Chenopodium album
Excerpt: as §1

FALL PANICUM = test: Test F; format: in vivo, Panicum dichotomiflorum
Excerpt: as §1

CMN PURSLANE = test: Test F; format: in vivo, Portulaca oleracea
Excerpt: as §1

IVY MORNINGGLORY = test: Test F; format: in vivo, Ipomoea hederacea
Excerpt: as §1

RICE JAP TOL = test: Test C rice paddy; format: in vivo, Japonica rice; conditions: 21 days
How it was run: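 Chemicals were applied as a water treatment to flooded pots (3 cm depth, kept constant) within 24 h of flooding, which occurred 3–4 days after planting. Weeds were grown from seedlings, sprouted tubers or seed alongside separately potted transplanted rice.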

Measured: plant response

C=C(c1ccc(F)cc1)C(O)(Cn1cncn1)c1ccccc1F (centres unmarked) [Example 644]
100%: LADY SMARTWEED [1]; POSTEMERGENCE 0125 GM/HA | LADY SMARTWEED [1]; POSTEMERGENCE 0250 GM/HA | LADY SMARTWEED [1]; POSTEMERGENCE 0500 GM/HA
0%: LADY SMARTWEED [1]; POSTEMERGENCE 0064 GM/HA

C=C(c1ccc(F)cc1)C(O)(Cn1cncn1)c1ccc(F)cc1F (centres unmarked) [Example 4, 2-(2,4-Difluorophenyl)-3-(4-fluorophenyl)-1-(1H-1,2,4-triazol-1-yl)-3-buten-2-ol]
20%: LARGE CRABGRASS; PREEMERGENCE 0064 GM/HA | LADY SMARTWEED [2]; PREEMERGENCE 0250 GM/HA | LADY SMARTWEED [2]; PREEMERGENCE 0500 GM/HA | BERMUDAGRASS; PREEMERGENCE 0064 GM/HA | JOHNSONGRASS; PREEMERGENCE 0125 GM/HA | LAMBSQUARTER; PREEMERGENCE 0064 GM/HA | LAMBSQUARTER; PREEMERGENCE 0125 GM/HA | CMN PURSLANE; PREEMERGENCE 0064 GM/HA
80%: GOOSEGRASS; PREEMERGENCE 0032 GM/HA | GOOSEGRASS; PREEMERGENCE 0064 GM/HA | CMN PURSLANE; PREEMERGENCE 0500 GM/HA
95%: BERMUDAGRASS; PREEMERGENCE 0125 GM/HA
100%: GOOSEGRASS; PREEMERGENCE 0125 GM/HA | GOOSEGRASS; PREEMERGENCE 0250 GM/HA | GOOSEGRASS; PREEMERGENCE 0500 GM/HA | LARGE CRABGRASS; PREEMERGENCE 0125 GM/HA | LARGE CRABGRASS; PREEMERGENCE 0250 GM/HA | LARGE CRABGRASS; PREEMERGENCE 0500 GM/HA | PRICKLY SIDA; PREEMERGENCE 0250 GM/HA | BERMUDAGRASS; PREEMERGENCE 0250 GM/HA | BERMUDAGRASS; PREEMERGENCE 0500 GM/HA | LADY SMARTWEED [1]; PREEMERGENCE 0500 GM/HA | REDROOT PIGWEED; PREEMERGENCE 0250 GM/HA | REDROOT PIGWEED; PREEMERGENCE 0500 GM/HA | FALL PANICUM; PREEMERGENCE 0250 GM/HA | FALL PANICUM; PREEMERGENCE 0500 GM/HA
30%: CMN PURSLANE; PREEMERGENCE 0125 GM/HA | CMN PURSLANE; PREEMERGENCE 0250 GM/HA
50%: JOHNSONGRASS; PREEMERGENCE 0250 GM/HA | JOHNSONGRASS; PREEMERGENCE 0500 GM/HA | REDROOT PIGWEED; PREEMERGENCE 0032 GM/HA
70%: REDROOT PIGWEED; PREEMERGENCE 0064 GM/HA | LAMBSQUARTER; PREEMERGENCE 0500 GM/HA
90%: PRICKLY SIDA; PREEMERGENCE 0500 GM/HA | FALL PANICUM; PREEMERGENCE 0032 GM/HA | FALL PANICUM; PREEMERGENCE 0064 GM/HA | FALL PANICUM; PREEMERGENCE 0125 GM/HA
0%: LARGE CRABGRASS; PREEMERGENCE 0032 GM/HA | PRICKLY SIDA; PREEMERGENCE 0032 GM/HA | PRICKLY SIDA; PREEMERGENCE 0064 GM/HA | PRICKLY SIDA; PREEMERGENCE 0125 GM/HA | COKER COTTON; PREEMERGENCE 0032 GM/HA | COKER COTTON; PREEMERGENCE 0064 GM/HA | COKER COTTON; PREEMERGENCE 0125 GM/HA | COKER COTTON; PREEMERGENCE 0250 GM/HA | COKER COTTON; PREEMERGENCE 0500 GM/HA | PURPLE NUTSEDGE; PREEMERGENCE 0032 GM/HA | PURPLE NUTSEDGE; PREEMERGENCE 0064 GM/HA | PURPLE NUTSEDGE; PREEMERGENCE 0125 GM/HA | PURPLE NUTSEDGE; PREEMERGENCE 0250 GM/HA | PURPLE NUTSEDGE; PREEMERGENCE 0500 GM/HA | LADY SMARTWEED [2]; PREEMERGENCE 0032 GM/HA | LADY SMARTWEED [2]; PREEMERGENCE 0064 GM/HA | LADY SMARTWEED [2]; PREEMERGENCE 0125 GM/HA | BERMUDAGRASS; PREEMERGENCE 0032 GM/HA | JOHNSONGRASS; PREEMERGENCE 0032 GM/HA | JOHNSONGRASS; PREEMERGENCE 0064 GM/HA | LAMBSQUARTER; PREEMERGENCE 0032 GM/HA | CMN PURSLANE; PREEMERGENCE 0032 GM/HA | IVY MORNINGGLORY; PREEMERGENCE 0032 GM/HA | IVY MORNINGGLORY; PREEMERGENCE 0064 GM/HA | IVY MORNINGGLORY; PREEMERGENCE 0125 GM/HA | IVY MORNINGGLORY; PREEMERGENCE 0250 GM/HA | IVY MORNINGGLORY; PREEMERGENCE 0500 GM/HA
60%: REDROOT PIGWEED; PREEMERGENCE 0125 GM/HA | LAMBSQUARTER; PREEMERGENCE 0250 GM/HA

C=C(c1ccccc1Cl)C(O)(Cn1cncn1)c1ccc(F)cc1F (centres unmarked) [Example 35]
20: RICE JAP TOL; 0125 G/HA
50: RICE JAP TOL; 0500 G/HA | RICE JAP TOL; 2000 G/HA
0: RICE JAP TOL; 0032 G/HA
